pIC50: −log10 of the molar value. Entries after “also recorded” stand apart in the source; their conditions may differ. Like-named read-outs stand apart in the source and are kept apart here.
Tests used:
hGAT‐3 = details: cited from earlier work
[1] = tested on: mice treated with scopolamine; experiment: Passive avoidance (PA) task, scopolamine-induced amnesia; format: in vivo; details: mouse, in vivo
Protocol: Animals and housing conditions
In all pharmacodynamic in vivo experiments, except for the Barnes maze (BM) task, adult male Albino Swiss (CD-1) mice weighing between 18 and 22 g and purchased from the Animal Breeding Farm of the Faculty of Pharmacy, Jagiellonian University Medical College were used. In BM task, C57BL/6J mice of the same weight (Animalab, Poland) were used.
Animals were housed in cages (10 mice per cage) at a constant temperature of 22 ± 2 °C, humidity of 55 ± 10%, and a light/dark (12:12) cycle (lights on at 7 AM). Before the experiments, the animals had unlimited access to food and water. Specified conditions for the maintenance of mice were ensured throughout the experiments, including tree bedding (Transwior, Poland) and cage enrichment (tunnels, nesting material, wooden igloos, etc.). […]
doses for behavioral assays. Lower doses were also assessed if at least one of them was […]
On the first day, during the acquisition trial (a conditioning phase), the test compound 6, scopolamine, and vehicle were injected. […] The latency between opening the guillotine gate and the mouse entering the black compartment was measured for each mouse. On the next day, during the retention (drug-off) trial, the mice were placed again into the white compartment for a 30-s habituation period, and the latency to enter the black compartment was measured for each mouse. […]

[2] = target: T1, human butyrylcholinesterase (hBuChE) (Homo sapiens, UniProt P06276); experiment: biochemical; details: inhibitor concentration 1 μM; read-out: hBuChE % inh.
T1 construct: from human plasma was from Vivonics (Bedford, MA, USA); purchased Vivonics (Bedford, MA, USA); host or cells: human plasma
T1 sequence (P06276 29-602): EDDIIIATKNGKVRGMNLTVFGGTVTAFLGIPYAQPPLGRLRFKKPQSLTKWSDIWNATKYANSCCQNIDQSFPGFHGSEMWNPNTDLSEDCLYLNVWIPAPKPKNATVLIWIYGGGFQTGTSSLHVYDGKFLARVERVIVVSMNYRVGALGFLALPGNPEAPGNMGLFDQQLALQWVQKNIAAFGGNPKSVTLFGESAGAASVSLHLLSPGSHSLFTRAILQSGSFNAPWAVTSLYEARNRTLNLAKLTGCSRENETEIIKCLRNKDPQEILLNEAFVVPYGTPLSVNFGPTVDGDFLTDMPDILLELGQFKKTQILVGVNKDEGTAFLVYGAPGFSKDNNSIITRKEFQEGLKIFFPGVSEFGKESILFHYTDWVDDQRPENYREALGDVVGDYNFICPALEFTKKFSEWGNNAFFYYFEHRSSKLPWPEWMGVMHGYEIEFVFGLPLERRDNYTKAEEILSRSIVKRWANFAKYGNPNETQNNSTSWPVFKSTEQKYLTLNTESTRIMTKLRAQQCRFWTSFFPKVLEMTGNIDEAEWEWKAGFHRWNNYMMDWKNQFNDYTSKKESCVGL

BuChE = details: 1 or 5 µM compound (printed '1 or 5 M'), vs DMSO

O=C(CC(c1ccccc1)c1ccccc1)N[C@@H](Cc1ccccc1)[C@@H](O)CNCc1ccccc1 [Compound I]
pIC50 (hGAT‐3; earlier screening): 5.52 | pro-cognitive effect in passive avoidance task [1]: did not observe pro‐cognitive effects; also recorded: non active | inhibition at 1 µM [2]: 67.7%

Nc1c2c(nc3ccccc13)CCCC2 [Tacrine, reference compound]
Melting temperature (Tm) of BuChE (BuChE): increased Tm of BuChE

COc1ccc(C(OCCN2CCC[C@H](C(=O)O)C2)(c2ccc(OC)cc2)c2ccc(OC)cc2)cc1 [(S)‐SNAP‐5114, reference compound]
pIC50 (hGAT‐3): 4.35

From article PMC11796312, “Multifunctional, Fluorene‐Based Modulator of Cholinergic and GABAergic Neurotransmission as a Novel Drug Candidate for Palliative Treatment of Alzheimer's Disease” (Angewandte Chemie (International Ed. in English), 2024)
